# Test: recombinant UMI read abundance after kanamycin selection (control-corrected) (log10(CPM+1)); higher = more efficient recombination; extreme values may be limits of the assay; sequences stand for … in AGTGCAGAGAAAATCGGCCAGTTTTCTCTGCCTGCAGTCCGCATGCCGTGGGACCCCTTGGGTTCTAACCTGTTGCCTAGATTTATGCAGCGGACTGCCTTTCTCCCAAAGTGATAAACCGG…AGGTTGGTTTCACT; site = the 11-nt donor
# How it was run: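 Two replicates each of selected and unselected plating were used in this pooled Escherichia coli screen of donor and donor-binding-loop pairs for the IS621 bridge recombinase. Selection was with IPTG (0.07 mM) and kanamycin. Counts of recombinant UMIs, amplified across the donor–target junction, were converted to CPM, averaged, scaled by control-derived factors and reported as log10(CPM+1).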
# 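Also: IS621 bridge recombinase in Escherichia coli cells against a fixed T5 target plasmid.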
row,Sequence,recombinant UMI read abundance (log10)
1,CTAATAACATGGACCGGTTTTCCCGGTAATCCGTATTTGAC (site CTAGTATCTGT),0
2,CGGAATCCATGGACCGGTTTTCCCGGTAATCCGTATTTGTT (site CGGACTCCTAA),0.00741
3,AGCCCTCCATGGACCGGTTTTCCCGGTAATCCGTATTTGTT (site AGCCCTCCTAA),0.00736
4,GATTGAACATGGACCGGTTTTCCCGGTAATCCGTATTTGAC (site GATTGGACTGT),0.339
5,GTAGGTACATGGACCGGTTTTCCCGGTAATCCGTATTTGCC (site GTAGGTACTGC),0.00606
6,AACTGCACATGGACCGGTTTTCCCGGTAATCCGTATTTGCT (site AACTGCACTAG),1.96
7,CTAGCATCATGGACCGGTTTTCCCGGTAATCCGTATTTGAA (site CTAGTATCTGT),0
8,CGTTAGACATGGACCGGTTTTCCCGGTAATCCGTATTTGAG (site CCTTAGACTCT),0.0362
9,TGAAGCTCATGGACCGGTTTTCCCGGTAATCCGTATTTGGG (site TGAAGCTCTCC),0.0156
10,CGCCGTACATGGACCGGTTTTCCCGGTAATCCGTATTTGCT (site CGCCGTGCTAG),0.065
11,ACTTGTGCATGGACCGGTTTTCCCGGTAATCCGTATTTGGT (site ACTCGTGCTAC),0.73
12,TCCACCTCATGGACCGGTTTTCCCGGTAATCCGTATTTGCG (site TCCACCCCTCG),0.0186
13,TAAAGTCCATGGACCGGTTTTCCCGGTAATCCGTATTTGTA (site TAAAGTCCTTC),0.00609
14,GCCACGCCATGGACCGGTTTTCCCGGTAATCCGTATTTGCA (site GCCACGCCTTC),0.0237
15,CTTGTGTCATGGACCGGTTTTCCCGGTAATCCGTATTTGAC (site CTTGTGTCTGT),0.301
16,CTAAGCGCATGGACCGGTTTTCCCGGTAATCCGTATTTGAA (site CTAAGCGCTTT),2.02
17,ACTGGTGCATGGACCGGTTTTCCCGGTAATCCGTATTTGGT (site ACTCGTGCTAC),0.414
18,ACTAGTGCATGGACCGGTTTTCCCGGTAATCCGTATTTGTT (site ACTAGTGCTAG),1.16
19,AGGAAGTCATGGACCGGTTTTCCCGGTAATCCGTATTTGTA (site AGGAAGACTTG),0
20,AGCCTATCATGGACCGGTTTTCCCGGTAATCCGTATTTGTT (site AGCCTATCTAA),0
21,ATCGTCCCATGGACCGGTTTTCCCGGTAATCCGTATTTGAT (site ATCGTCCCTAT),0.563
22,TAAGGAGCATGGACCGGTTTTCCCGGTAATCCGTATTTGGG (site TAAAGAGCTCC),0.628
23,GTTAGACCATGGACCGGTTTTCCCGGTAATCCGTATTTGGA (site GTTAGACCTTC),0.00772
24,CGGACTCCATGGACCGGTTTTCCCGGTAATCCGTATTTGTT (site CGGAGTCCTAA),0.00177
25,TGATCCTCATGGACCGGTTTTCCCGGTAATCCGTATTTGCT (site CGATCATCTAG),0.523

row,Sequence,recombinant UMI read abundance (log10)
1,GCTACTGCATGGACCGGTTTTCCCGGTAATCCGTATTTGCC (site GCCACTGCTGG),0.445
2,GTATCCACATGGACCGGTTTTCCCGGTAATCCGTATTTGTA (site GTATACACTTA),0.926
3,CAATCGACATGGACCGGTTTTCCCGGTAATCCGTATTTGTT (site CCATCGACTAA),0.0214
4,GCTACTGCATGGACCGGTTTTCCCGGTAATCCGTATTTGCC (site GCGACTGCTGG),0
5,CGATTGGCATGGACCGGTTTTCCCGGTAATCCGTATTTGAT (site CGATTGGCTAT),2.26
6,CGTAAGCCATGGACCGGTTTTCCCGGTAATCCGTATTTGTT (site CGTAAGCCTAA),0.666
7,ATGTAGGCATGGACCGGTTTTCCCGGTAATCCGTATTTGGA (site ATGTAGGCTAC),0.451
8,GGGAATCCATGGACCGGTTTTCCCGGTAATCCGTATTTGTC (site CGGAATCCTAA),0.00512
9,ACACGAACATGGACCGGTTTTCCCGGTAATCCGTATTTGTG (site ACACGAACTAA),0.269
10,AATGTAACATGGACCGGTTTTCCCGGTAATCCGTATTTGTT (site AATGTAACTAT),0.0338
11,TGCCACCCATGGACCGGTTTTCCCGGTAATCCGTATTTGTT (site CGCCACCCTAA),0.0165
12,TATTCAACATGGACCGGTTTTCCCGGTAATCCGTATTTGTG (site TATTCAACTCA),0.011
13,CGCCGTACATGGACCGGTTTTCCCGGTAATCCGTATTTGCT (site AGCCGTACTAG),0.192
14,AAACACGCATGGACCGGTTTTCCCGGTAATCCGTATTTGGG (site AATCACGCTCC),0.0344
15,GGAGAGGCATGGACCGGTTTTCCCGGTAATCCGTATTTGGT (site GGAGGGGCTAC),0.0239
16,TTGACTCCATGGACCGGTTTTCCCGGTAATCCGTATTTGCT (site TTGACTCCTAG),0.111
17,TTGCATGCATGGACCGGTTTTCCCGGTAATCCGTATTTGGT (site GTGCATGCTAC),0.0185
18,TCCTCCGCATGGACCGGTTTTCCCGGTAATCCGTATTTGCG (site TCCTCCGCTCG),0.0201
19,GTGGAGTCATGGACCGGTTTTCCCGGTAATCCGTATTTGTG (site GTGGAGTCTCA),2.76
20,CAAGCAACATGGACCGGTTTTCCCGGTAATCCGTATTTGCT (site CAAGCAGCTAG),0
21,ACACAGCCATGGACCGGTTTTCCCGGTAATCCGTATTTGAC (site ACACATCCTGT),0.0116
22,CGATCATCATGGACCGGTTTTCCCGGTAATCCGTATTTGCT (site CTATCATCTAC),0.00862
23,TCTAGAACATGGACCGGTTTTCCCGGTAATCCGTATTTGAG (site TCTAGAACTCT),0.00301
24,ATAGAGACATGGACCGGTTTTCCCGGTAATCCGTATTTGGT (site ATGGAGACTAC),0.992
25,TCGTCACCATGGACCGGTTTTCCCGGTAATCCGTATTTGTA (site TCGTCACCTTA),0.0393

row,Sequence,recombinant UMI read abundance (log10)
1,AGCCTAGCATGGACCGGTTTTCCCGGTAATCCGTATTTGTG (site AGCCTAGCTAA),0.0164
2,GTGGGCCCATGGACCGGTTTTCCCGGTAATCCGTATTTGTC (site GTGGGCCCTGA),0.429
3,TGGTGTACATGGACCGGTTTTCCCGGTAATCCGTATTTGAA (site TGGTGTACTTT),0.131
4,CGATCATCATGGACCGGTTTTCCCGGTAATCCGTATTTGCT (site CTATCATCTCG),0.0222
5,GATGGGACATGGACCGGTTTTCCCGGTAATCCGTATTTGAC (site GATAGGACTGT),1.69
6,CTGTTAGCATGGACCGGTTTTCCCGGTAATCCGTATTTGTG (site CGGTTAGCTCA),0.0126
7,AGGAAAACATGGACCGGTTTTCCCGGTAATCCGTATTTGCG (site AGGAAAACTCG),1.5
8,CACTCCTCATGGACCGGTTTTCCCGGTAATCCGTATTTGCC (site CCCTCCTCTGG),0.97
9,CACTCCACATGGACCGGTTTTCCCGGTAATCCGTATTTGCC (site CACTCCGCTGG),1.8
10,GATACGTCATGGACCGGTTTTCCCGGTAATCCGTATTTGTT (site GGTACGTCTAA),0.0473
11,CCTGCCCCATGGACCGGTTTTCCCGGTAATCCGTATTTGGC (site CCTGCCCCTGC),0
12,CACAAACCATGGACCGGTTTTCCCGGTAATCCGTATTTGGT (site GACAAACCTAC),0
13,GTTCGAGCATGGACCGGTTTTCCCGGTAATCCGTATTTGGA (site GTTCGAGCTTT),0.942
14,AATTATGCATGGACCGGTTTTCCCGGTAATCCGTATTTGGA (site AATTCTGCTTC),0.313
15,ACAAAATCATGGACCGGTTTTCCCGGTAATCCGTATTTGCA (site ACAAAATCTTG),1.3
16,TTCATGACATGGACCGGTTTTCCCGGTAATCCGTATTTGCG (site TTCATGACTCG),0
17,CGGGAGTCATGGACCGGTTTTCCCGGTAATCCGTATTTGCC (site CGGGAGTCTGG),1.67
18,AACCGTCCATGGACCGGTTTTCCCGGTAATCCGTATTTGAT (site AACCGCCCTAT),0.00356
19,GTTAGAACATGGACCGGTTTTCCCGGTAATCCGTATTTGGT (site GTTAGAACTCC),0.0129
20,CCGCCTCCATGGACCGGTTTTCCCGGTAATCCGTATTTGGC (site CCGCCTCCTGC),0
21,TAATTGGCATGGACCGGTTTTCCCGGTAATCCGTATTTGTG (site TAGTTGGCTCA),0.0118
22,GAAGCATCATGGACCGGTTTTCCCGGTAATCCGTATTTGCA (site GAAGCATCTTG),2.67
23,GTGCACGCATGGACCGGTTTTCCCGGTAATCCGTATTTGGT (site GTGCAGGCTAC),0.00611
24,GATCATCCATGGACCGGTTTTCCCGGTAATCCGTATTTGCT (site GATGATCCTAG),0
25,CGGGAGTCATGGACCGGTTTTCCCGGTAATCCGTATTTGCC (site CGGGAGTCTGA),2.66
